Data taken from US20230181524A1, “PHARMACEUTICAL COMBINATION AND USE THEREOF” (NATURAL MEDICINE INSTITUTE OF ZHEJIANG YANGSHENGTANG CO., …, priority 2020, published 2023).
Read-outs that look alike come from different tables or passages of the source.

How the values were obtained:
[1] = system: 143B human osteosarcoma cells; assay: Migration of osteosarcoma cells (scratch lines, photographs at 12h and 24h); format: cell-based; settings: 143B cells, 0.1 μM PKF118-310 in combination with 0.5 mM Vc
Protocol: (§1) (1) HOS human osteosarcoma cells and 143B human osteosarcoma cells were subcultured at 37° C., 5% CO2 in an incubator with a RPMI-1640 medium containing 10% fetal bovine serum.
(§2) 10 μL was taken for counting.
(§3) The diluted cells were plated into a 12-well plate with 1 mL per well, i.e., about 100,000 cells per well.
(§4) (4) The cells plated in the 12-well plate were cultured to a density of more than 80%. Then, a control group (to which DMSO was added), as well as groups to which 0.1 μM of PKF118-310, 0.5 mM Vc, and a combination of 0.1 μM of PKF118-310 with 0.5 mM sodium ascorbate were respectively added were prepared. Parallel lines were drawn with the tip of a 10 μL pipette at the bottom of the plate.
(§5) (5) The cells were placed into a 37° C., 5% CO2 incubator for incubation, and observed and recorded by photographs at 12h and 24h.

[2] = system: HOS human osteosarcoma cells; assay: as above; format: cell-based; settings: 0.1 μM PKF118-310 in combination with 0.5 mM Vc
Protocol: as §1, §2, §3, §4, §5

143B cells = assay: Osteosarcoma tumor model in nude mice (tumor volume, Luciferin fluorescence imaging); format: in vivo, nude mice (BALB/c-nu)
Protocol: (1) Tumor preparation in nude mice. 6-8-week-old female nude mice (BALB/c-nu) (purchased from Vital River Laboratory Animal Technology Co., Ltd.) were selected. 143B cells were cultured in vitro to the log phase. The cells were collected and re-suspended in a PBS buffer solution. The collected cells were subcutaneously injected to the mammary glands of nude mice with 5×10^6 143B cells/nude mouse to establish a model of tumor in situ.

[3] = system: 3AO human ovarian cancer cells; assay: cells; settings: 3AO cells
Protocol: (§6) (1) Cells were plated in a 10 cm culture plate to grow a density of about 90%. The medium was removed, and the adherent cells were washed once with a PBS buffer. 1 mL of trypsin was added, and immediately discarded after mixing well. The cells were placed in the incubator and digested for about 5 min, and then about 10 ml of fresh medium was added. 10 μL was taken for counting.
(§7) (2) 10 μL of the well-mixed cells were taken and mixed into 10 μL of Trypan Blue solution, and counted.
(§8) (3) After counting, the cells were diluted to 1×10^5 cells/ml. The diluted cells were mixed well, and plated into a 24-well plate with 500 μL per well, i.e., about 50,000 cells per well.
(§9) (4) The cells plated in the 24-well plate were cultured for about 24h, and then drugs were added. Various test groups comprise 5 groups as follows: the single-drug group of PKF118-310 (with a concentration of 0.1 μM), the group of ascorbic acid (with a concentration of 0.5 mM), the group of PKF118-310 (with a concentration of 0.1 μM) in combination with ascorbic acid (with a concentration of 0.5 mM); the control group that is a cell group to which only solvent DMSO is added; and the blank group that is a group to which no cell is added and only solvent (DMSO) is added.
(§10) (5) After 24h of dosing, the medium was discarded. About 150 μL of trypsin was added and then discarded. The cells were digested for 5 min;
(§11) (6) After digestion, equivalent amounts of PBS were added into each well and mixed uniformly. Then, 10 μL/well of Trypan Blue solution was added and mixed uniformly. 10 μL of the well-mixed solution was taken and counted. In accordance with “Cell viability=Cell Count of Test Group/Cell Count of Control Group×100%”, the cell viability of various groups was calculated.
(§12) The inhibitory effect of PKF118-310 on the SKOV3 human ovarian cancer cells and the 3AO human ovarian cancer cells was detected in accordance with the corresponding method of Example 1.

[4] = system: SKOV3 human ovarian cancer cells; assay: cells; settings: SKOV3 cells
Protocol: as §6, §7, §8, §9, §10, §11, §12

[5] = system: MC38 human colon cancer cells; assay: Cell viability, method of Example 1; settings: MC38 cells
Protocol: as §6, §7, §8, §9, §10, §11
(§13) The inhibitory effect of PKF118-310 on the MC38 human colon cancer cells and the HCT116 human […] cancer cells was detected in accordance with the corresponding method of Example 1.

[6] = system: HCT116 human colon cancer cells; assay: cells; settings: HCT116 cells
Protocol: as §6, §7, §8, §9, §10, §11, §13

T cells = assay: Cell viability of immune cells by cell count; format: cell-based; settings: 0.1 μM PKF118-310 in combination with 0.5 mM ascorbic acid, 24h
Protocol: (§14) Immune cells comprise T cells and Macrophages, wherein the T cells are cultured with a 1640 medium, and the macrophages are cultured with a DMEM medium. The particular procedures are follows:
as §2
(§15) (5) After 24h of dosing, the medium was discarded. […] The cells were digested for 5 min;

macrophages = assay: Cell viability of immune cells by cell count; format: cell-based; settings: 0.1 μM PKF118-310 in combination with 0.5 mM ascorbic acid, 24h
Protocol: as §14, §2, §15

DB lymphoma cells = system: DB lymphoma cells
Protocol: as §6, §7, §8, §9, §10, §11
For example, as for the DB lymphoma cells, the control group involves adding the solvent DMSO alone, the Vc group involves adding 2 mM of ascorbic acid, the low-dose PKF group involves adding 2 μM of PKF118-310, the low-dose PKF+Vc group involves adding 2 μM of PKF118-310 and 2 mM of ascorbic acid, the high-dose PKF group involves adding 5 μM of PKF118-310, and the high-dose PKF+the Vc group involves adding 5 μM of PKF118-310 and 2 mM of ascorbic acid.

[7] = 0.1 μM in combination with 0.5 mM sodium ascorbate
[8] = 0.3 μM in combination with 0.5 mM sodium ascorbate
[9] = 0.5 μM in combination with 0.5 mM sodium ascorbate

Cn1ncnc2c(=O)n(C)c(=O)nc1-2 [PKF118-310]
migration of cells [1]: significantly inhibit the migration
migration of cells [2]: significantly inhibit the migration
tumor growth, tumor volume with time (143B cells; 0.7 mg/kg PKF118-310 s.c. + 1 g/kg ascorbic acid i.v. every 3 days, 6 times, vs blank control and single-drug groups (P<0.001)): significantly inhibits the tumor growth
tumor volume on Day 21 (143B cells; 0.7 mg/kg PKF118-310 s.c. + 1 g/kg ascorbic acid i.v., compared with blank control, PKF118-310 and sodium ascorbate groups): substantially smaller
tumor growth, Luciferin fluorescence imaging (143B cells; Day 21, 0.7 mg/kg PKF118-310 s.c. + 1 g/kg ascorbic acid i.v. every 3 days, 6 times, vs blank control and single-drug groups): significantly inhibits the tumor growth
CDI value [3, 7]: 0.35
cell viability [3, 7]: 31%
CDI value [3, 8]: 0.19
cell viability [3, 8]: 13%
cell viability ([3]; 0.05 M in combination with 0.5 mM sodium ascorbate): 58%
CDI value ([3]; in combination with 0.5 mM sodium ascorbate): 0.60
cell viability ([3]; single-drug 0.1 μM): 92%
cell viability ([3]; single-drug 0.3 μM): 69%
cell viability ([3]; single-drug 0.05 M): 101%
CDI value [4, 8]: 0.31
cell viability [4, 8]: 28%
CDI value [4, 9]: 0.34
cell viability [4, 9]: 20%
cell viability ([4]; single-drug 0.3 μM): 94%
cell viability ([4]; single-drug 0.5 μM): 61%
CDI value [5, 8]: 0.15
cell viability [5, 8]: 11%
cell viability ([5]; single-drug 0.3 μM): 88%
CDI value [6, 8]: 0.24
cell viability [6, 8]: 22%
cell viability ([6]; single-drug 0.3 μM): 92%
effect on immune cells (cell viability) (T cells): does not have effect on the immune cells
effect on immune cells (cell viability) (macrophages): does not have effect on the immune cells
cell viability (DB lymphoma cells; 2 μM and 2 mM ascorbic acid): 12%
cell viability (DB lymphoma cells; 5 μM and 2 mM ascorbic acid): 11%
CDI value (DB lymphoma cells; high-dose (5 μM) with 2 mM ascorbic acid): 0.18
CDI value (DB lymphoma cells; low-dose (2 μM) with 2 mM ascorbic acid): 0.17
cell viability (DB lymphoma cells; single drug 2 μM (low-dose)): 72%
cell viability (DB lymphoma cells; single drug 5 μM (high-dose)): 67%
effect on the body weight of mice (PKF118-310 0.7 mg/kg s.c. in combination with ascorbate 1 g/kg i.v. every 3 days): no effect on the body weight of mice
effect on the body weight of mice (alone, PKF118-310 0.7 mg/kg s.c. or ascorbate 1 g/kg i.v. every 3 days): no effect on the body weight of mice
